Assay results taken from US20260242391A1 (priority 2023, published 2026).

Experiments:
HL-60 [1] = test: HL-60 differentiation potency; assay type: cell-based; conditions: Homo sapiens
in vitro [2] = conditions: human
in vitro [3] = conditions: human; remark: listed apart in the source
HL-60 [4] = test: HL-60 differentiation potency; assay type: cell-based; conditions: Homo sapiens; remark: listed apart in the source

| Compound | EC50 (HL-60 [1]) | IC50 (in vitro [2]) | IC50 (in vitro [3]) | EC50 (HL-60 [4]) |
| --- | --- | --- | --- | --- |
| C[C@H]1[C@@H](Oc2ccc(OC(C)(C)C(=O)O)cc2)O[C@@H]2O[C@@]3(C)CC[C@H]4[C@H](C)CC[C@@H]1[C@@]24OO3 [Compound 221, 2-methyl-2-(4-(((3R,5aS,6R,8aS, 9R,10S,12R, 12aR)-3,6,9-trimethyldeca-hydro-12H-3,12-epoxy[1,2]dioxepino[4,3-i]isochromen-10-yl)oxy)phenoxy) propanoic acid] | 0.124 µM | 9.61 µM | – | – |
| C[C@H]1[C@@H](O[C@H]2CC[C@@H](C(=O)N[C@H](C(=O)O)C(C)(C)O)CC2)O[C@@H]2O[C@@]3(C)CC[C@H]4[C@H](C)CC[C@@H]1[C@@]24OO3 [Compound 249, (S)-3-hydroxy-3-methyl-2-((1R,4R)-4-(((3R,5aS,6R,8aS, 9R,10S,12R, 12aR)-3,6,9-trimethyldeca-hydro-12H-3,12-epoxy[1,2]dioxepino[4,3-i]isochromen-10-yl)oxy)cyclo-hexane-1-carboxamido) butanoic acid] | 20 µM | > 20 µM | – | – |
| C[C@H]1[C@@H](OCc2ccc(C(=O)NC34CCC(C(=O)O)(C3)C4)cc2)O[C@@H]2O[C@@]3(C)CC[C@H]4[C@H](C)CC[C@@H]1[C@@]24OO3 [Compound 293, 4-(4-((((3R,5aS,6R,8aS, 9R,10S,12R, 12aR)-3,6,9-trimethyldeca-hydro-12H-3,12-epoxy[1,2]dioxepino[4,3-i]isochromen-10-yl)oxy)methyl)benzamido) bicyclo[2.1.1] hexane-1-carboxylic acid] | 0.0432 µM | > 20 µM | – | – |
| C[C@H]1[C@@H](OCC2CCC(C(=O)O)O2)O[C@@H]2O[C@@]3(C)CC[C@H]4[C@H](C)CC[C@@H]1[C@@]24OO3 (stereo partly drawn) [Compound 209, 5-((((3R,5aS,6R,8aS, 9R,10S,12R, 12aR)-3,6,9-trimethyldeca-hydro-12H-3,12-epoxy[1,2]dioxepino[4,3-i]isochromen-10-yl)oxy)methyl) tetrahydrofuran-2-carboxylic acid] | 15.8 µM | > 20 µM | – | – |
| C[C@H]1[C@@H](Oc2ccc(C(=O)N3[C@H](C(=O)O)C[C@@H]4C[C@@H]43)cc2)O[C@@H]2O[C@@]3(C)CC[C@H]4[C@H](C)CC[C@@H]1[C@@]24OO3 [Compound 258, (1S,3S,5S)-2-(4-(((3R,5aS,6R,8aS, 9R,10S,12R, 12aR)-3,6,9-trimethyldeca-hydro-12H-3,12-epoxy[1,2]dioxepino[4,3-i]isochromen-10-yl)oxy)benzoyl)-2-azabicyclo [3.1.0]hexane-3-carboxylic acid] | > 20 µM | > 20 µM | – | – |
| C[C@H]1[C@@H](O[C@H]2CC[C@@H](C(=O)N[C@H]3CC[C@@H](C(=O)O)C3)CC2)O[C@@H]2O[C@@]3(C)CC[C@H]4[C@H](C)CC[C@@H]1[C@@]24OO3 [Compound 202, (1R,3S)-3-((1R,4R)-4-(((3R,5aS,6R,8aS, 9R,10S,12R, 12aR)-3,6,9-trimethyldeca-hydro-12H-3,12-epoxy[1,2]dioxepino[4,3-i]isochromen-10-yl)oxy)cyclo-hexane-1-carboxamido) cyclopentane-carboxylic acid] | 4.01 µM | – | – | – |
| C[C@H]1[C@@H](OCC2CC3C(C2)C3C(=O)O)O[C@@H]2O[C@@]3(C)CC[C@H]4[C@H](C)CC[C@@H]1[C@@]24OO3 (stereo partly drawn) [Compound 181, 3-((((3R,5aS,6R,8aS, 9R,10S,12R, 12aR)-3,6,9-trimethyldeca-hydro-12H-3,12-epoxy[1,2]dioxepino[4,3-i]isochromen-10-yl)oxy)methyl) bicyclo[3.1.0] hexane-6-carboxylic acid] | – | – | > 20 µM | 0.14 µM |
| Cc1cc(C(=O)O)ccc1CO[C@@H]1O[C@@H]2O[C@@]3(C)CC[C@H]4[C@H](C)CC[C@@H]([C@H]1C)[C@@]24OO3 [Compound 44, 3-methyl-4-((((3R,5aS,6R,8aS, 9R,10R,12R, 12aR)-3,6,9-trimethyldeca-hydro-12H-3,12-epoxy[1,2]dioxepino[4,3-i]isochromen-10-yl)oxy)methyl) benzoic acid] | – | – | > 20 µM | 1.01 µM |
| C[C@H]1[C@@H](OC[C@]2(F)CC[C@H](C(=O)O)CC2)O[C@@H]2O[C@@]3(C)CC[C@H]4[C@H](C)CC[C@@H]1[C@@]24OO3 [Compound 140, (1S,4r)-4-fluoro-4-((((3R,5aS,6R,8aS, 9R,10S,12R, 12aR)-3,6,9-trimethyldeca-hydro-12H-3,12-epoxy[1,2]dioxepino[4,3-i]isochromen-10-yl)oxy)methyl) cyclohexane-1-carboxylic acid] | – | – | 19 µM | 0.314 µM |

More lines, now with the values ahead:

| EC50 (HL-60 [1]) | IC50 (in vitro [2]) | IC50 (in vitro [3]) | EC50 (HL-60 [4]) | Compound |
| --- | --- | --- | --- | --- |
| 0.112 µM | 1.27 µM | – | – | C[C@H]1[C@@H](Oc2ccc(C(=O)N[C@H](C(=O)O)c3ccccc3)cc2)O[C@@H]2O[C@@]3(C)CC[C@H]4[C@H](C)CC[C@@H]1[C@@]24OO3 [Compound 234, (S)-2-phenyl-2-(4-(((3R,5aS,6R,8aS, 9R,10S,12R, 12aR)-3,6,9-trimethyldeca-hydro-12H-3,12-epoxy[1,2]dioxepino[4,3-i]isochromen-10-yl)oxy)benzamido) acetic acid] |
| 9.2 µM | > 20 µM | – | – | C[C@H]1[C@@H](O[C@H]2CC[C@@H](C(=O)N[C@H]3C[C@@H](C(=O)O)C3)CC2)O[C@@H]2O[C@@]3(C)CC[C@H]4[C@H](C)CC[C@@H]1[C@@]24OO3 [Compound 228, (1S,3s)-3-((1R,4S)-4-(((3R,5aS,6R,8aS, 9R,10S,12R, 12aR)-3,6,9-trimethyldeca-hydro-12H-3,12-epoxy[1,2]dioxepino[4,3-i]isochromen-10-yl)oxy)cyclo-hexane-1-carboxamido) cyclobutane-1-carboxylic acid] |
| 0.0708 µM | 1.88 µM | – | – | C[C@H]1[C@@H](Oc2cc(F)cc(OCC(=O)O)c2)O[C@@H]2O[C@@]3(C)CC[C@H]4[C@H](C)CC[C@@H]1[C@@]24OO3 [Compound 220, 2-(3-fluoro-5-(((3R,5aS,6R,8aS, 9R,10S,12R, 12aR)-3,6,9-trimethyldeca-hydro-12H-3,12-epoxy[1,2]dioxepino[4,3-i]isochromen-10-yl)oxy)phenoxy) acetic acid] |
| 0.0375 µM | 15 µM | – | – | C[C@H]1[C@@H](Oc2ccc(C(=O)O)cc2Cl)O[C@@H]2O[C@@]3(C)CC[C@H]4[C@H](C)CC[C@@H]1[C@@]24OO3 [Compound 235, 3-chloro-4-(((3R,5aS,6R,8aS, 9R,10S,12R, 12aR)-3,6,9-trimethyldeca-hydro-12H-3,12-epoxy[1,2]dioxepino[4,3-i]isochromen-10-yl)oxy)benzoic acid] |
| 0.0713 µM | 6.91 µM | – | – | C[C@H]1[C@@H](Oc2c(F)cc(OCC(=O)O)cc2F)O[C@@H]2O[C@@]3(C)CC[C@H]4[C@H](C)CC[C@@H]1[C@@]24OO3 [Compound 238, 2-(3,5-difluoro-4-(((3R,5aS,6R,8aS, 9R,10S,12R, 12aR)-3,6,9-trimethyldeca-hydro-12H-3,12-epoxy[1,2]dioxepino[4,3-i]isochromen-10-yl)oxy)phenoxy) acetic acid] |
| 0.325 µM | > 20 µM | – | – | C[C@H]1[C@@H](OCC(=O)Nc2ccc(C(=O)O)cc2)O[C@@H]2O[C@@]3(C)CC[C@H]4[C@H](C)CC[C@@H]1[C@@]24OO3 [Compound 213, 4-(2-(((3R,5aS,6R,8aS, 9R,10S,12R, 12aR)-3,6,9-trimethyldeca-hydro-12H-3,12-epoxy[1,2]dioxepino[4,3-i]isochromen-10-yl)oxy)actamido) benzoic acid] |
| 0.0219 µM | 16.2 µM | – | – | C[C@H]1[C@@H](Oc2ccc(CC(=O)N[C@H]3CC[C@@H](C(=O)O)C3)cc2)O[C@@H]2O[C@@]3(C)CC[C@H]4[C@H](C)CC[C@@H]1[C@@]24OO3 [Compound 239, (1R,3S)-3-(2-(4-(((3R,5aS,6R,8aS, 9R,10S,12R, 12aR)-3,6,9-trimethyldeca-hydro-12H-3,12-epoxy[1,2]dioxepino[4,3-i]isochromen-10-yl)oxy)phenyl)acetamido)cyclo-pentane-1-carboxylic acid] |
| 0.0936 µM | – | – | – | C[C@H]1[C@@H](Oc2ccc(C(=O)N[C@H]3C[C@@H](C(=O)O)C3)cc2)O[C@@H]2O[C@@]3(C)CC[C@H]4[C@H](C)CC[C@@H]1[C@@]24OO3 [Compound 233, (1R,3s)-3-(4-(((3R,5aS,6R,8aS, 9R,10S,12R, 12aR)-3,6,9-trimethyldeca-hydro-12H-3,12-epoxy[1,2]dioxepino[4,3-i]isochromen-10-yl)oxy)benzamido) cyclobutane-1-carboxylic acid] |
| – | – | > 20 µM | > 20 µM | C[C@H]1[C@@H](CCN2CCC(C(=O)O)CC2)O[C@@H]2O[C@@]3(C)CC[C@H]4[C@H](C)CC[C@@H]1[C@@]24OO3 [Compound 66, 1-(2-((3R,5aS,6R, 8aS,9R,10R,12R, 12aR)-3,6,9-trimethyldeca-hydro-12H-3,12-epoxy[1,2]dioxepino[4,3-i]isochromen-10-yl)ethyl) piperidine-4-carboxylic acid] |
| – | – | 0.11 µM | 0.0732 µM | C[C@H]1[C@@H](OC(=O)Cn2ccc(C(F)(F)F)n2)O[C@@H]2O[C@@]3(C)CC[C@H]4[C@H](C)CC[C@@H]1[C@@]24OO3 [Compound 145, (3R,5aS,6R,8aS, 9R,10R,12R, 12aR)-3,6,9-trimethyldeca-hydro-12H-3,12-epoxy[1,2] dioxepino[4,3-i] isochromen-10-yl 2-(3-(trifluoro-methyl)-1H-pyrazol-1-yl)acetate] |
| – | – | > 20 µM | > 20 µM | C[C@H]1[C@H](N2CCC(C(=O)NC3CS(=O)(=O)C3)CC2)O[C@@H]2O[C@@]3(C)CC[C@H]4[C@H](C)CC[C@@H]1[C@@]24OO3 [Compound 65, N-(1,1-dioxidothietan-3-yl)-1-((3R,5aS,6R,8aS, 9R,10R,12R, 12aR)-3,6,9-trimethyldeca-hydro-12H-3,12-epoxy[1,2]dioxepino[4,3-i]isochromen-10-yl)piperidine-4-carboxamide] |
| – | – | > 20 µM | > 20 µM | C[C@H]1[C@@H](CCN2CC(C(=O)O)C2)O[C@@H]2O[C@@]3(C)CC[C@H]4[C@H](C)CC[C@@H]1[C@@]24OO3 [Compound 68, 1-(2-((3R,5aS,6R,8aS, 9R,10R,12R, 12aR)-3,6,9-trimethyldeca-hydro-12H-3,12-epoxy[1,2]dioxepino[4,3-i]isochromen-10-yl)ethyl) azetidine-3-carboxylic acid] |
